# Results as given in patent US20110046141A1, “USE OF PDE5 INHIBITORS FOR TREATING CIRCADIAN RHYTHM DISORDERS” (CONSEJO NACIONAL DE INVESTIGACIONES CIENTIFICAS Y TECNICAS …, priority 2007, published 2011).
# Tests used:
# [1] = system: cGMP levels in the hamster SCN; assay: Determination of cGMP levels in the SCN by direct enzyme immunoassay; type: in vivo; conditions: n=4
# Method: Determination of cGMP levels. Cyclic GMP content was determined using a direct enzyme immunoassay kit (Correlate-EIA #900-014, Assay Designs, Ann Arbor, Mich.). Hamsters received an injection of sildenafil (3.5 mg/kg, i.p.) or vehicle (sterile saline solution) at CT 18 and were sacrificed by decapitation 45-90 min later. The SCN were quickly punched out and immediately frozen in liquid nitrogen in order to avoid endogenous cGMP degradation. Tissue was grounded to a fine powder under liquid nitrogen and then homogenized in 0.1 M HCI. The overnight acetylated format of the kit was used. […] In order to precisely compare the effect of sildenafil on cGMP levels, the use of other phosphodiesterase inhibitors, e.g., IBMX, was avoided.
# [2] = system: Syrian hamsters (Mesocricetus auratus); assay: Light-induced phase delays of activity rhythm, light pulse at CT 14; type: in vivo; conditions: FIG. 3B
# Method: (§1) (A) Effect on reentrainment of wheel-running activity rhythm following a 6-hr phase delay of the LD cycle. Double-plotted actograms of hamster wheel-running activity showing reentrainment to a 6-hr delay of the LD cycle after the injection of vehicle (top) and sildenafil (3.5 mg/kg, i.p., middle). Injections of either saline or sildenafil were given at ZT 14 on the day of the cycle change (white star). Bottom: mean±S.E.M. (n=4 animals per group) of days needed for reentrainment. (B) Effect of sildenafil on light-induced phase delays following light pulses at CT 14. Representative actograms showing vehicle (top) or sildenafil (middle) injections. Bottom graph: Mean±S.E.M. (n=4 animals per group). Animals. Male adult (3-4 month-old) Syrian hamsters (Mesocricetus auratus) were raised and maintained in a 14:10 h light-dark cycle (L:D, lights on at 0600 h), with food and water ad libitum and room temperature set at 20±2° C. All animal procedures were performed in strict accordance with NIH rules for animal care and maintenance. […] Phase shifts were calculated by fitting a line (by three observers masked to the experimental procedure) through activity onsets 5 days prior and between 5 and 15 days after light exposure and then comparing these two lines on the day of the light pulse. […]
# [3] = system: Syrian hamsters (Mesocricetus auratus); assay: Observation of sildenafil-induced penile erections in treated hamsters; type: in vivo; conditions: intermediate dose 3.5 mg/kg i.p.
# rats = conditions: i.p.; cited from earlier work
# [4] = system: Syrian hamsters (Mesocricetus auratus); assay: Reentrainment of wheel-running activity rhythm after a 6-hr phase delay of the LD cycle; type: in vivo; conditions: 3.5 mg/kg i.p. at ZT 14; 6-hr delay; FIG. 3A
# Method: as §1, with “maintenance. Activity rhythm recording.” for “maintenance.”, “Running-wheel activity was continuously recorded for each animal using a digital system that registers wheel revolutions and stored at 5-min intervals for further analysis. […] Daily onsets of activity” for “Phase shifts”, “determined.” for “calculated by fitting a line (by three observers masked to the experimental procedure) through activity onsets 5 days prior and between 5 and 15 days after light exposure and then comparing these two lines on the day of the light pulse.”
# [5] = system: Syrian hamsters (Mesocricetus auratus); assay: Reentrainment of wheel-running activity rhythm after an abrupt 6-h advance of the LD cycle; type: in vivo; conditions: for time to resynchronize to the new LD cycle: saline 12±2 days; for decrease in reentrainment time: FIG. 1D
# Method: Animals. Male adult (3-4 month-old) Syrian hamsters (Mesocricetus auratus) were raised and maintained in a 14:10 h light-dark cycle (L:D, lights on at 0600 h), with food and water ad libitum and room temperature set at 20±2° C. All animal procedures were performed in strict accordance with NIH rules for animal care and maintenance. Activity rhythm recording. For the resynchronization experiment, animals were transferred to individual cages equipped with a running wheel (17 cm. diameter) and with light intensity averaging 200 lux at cage level. Running-wheel activity was continuously recorded for each animal using a digital system that registers wheel revolutions and stored at 5-min intervals for further analysis. Animals were initially maintained under a 14:10-h is light-dark cycle (LD, lights on at 1900 h) for at least 10 days. Then, hamsters were subjected to an abrupt 6-h advance in the phase of the LD cycle. On the day of the phase shift, intraperitoneal (i.p) injection of sildenafil or vehicle was given at zeitgeber time (ZT) 18, defining ZT 12 as the time of lights off. Time for reentrainment to the new LD cycle was defined as the time it took for each animal to adjust its activity onset with the new cycle (onset at the new time of lights off±15 minutes). Daily onsets of activity were determined. Briefly, activity onset was defined as the 10 min-bin that contained at least 80 wheel revolutions, followed by another bin of at least another 80 wheel revolutions within 40 min. The effect of 1, 3.5 or 10 mg/kg sildenafil—extracted from commercial preparations according to Francis et al. (Int. J. Impotence Res. 2003 15: 369-372) was tested at ZT 14 or 18 in comparison to vehicle administration (sterile saline).
# [6] = system: Syrian hamsters (Mesocricetus auratus); assay: Light-induced phase advances of activity rhythm, 15-min 50 lux light pulse at CT 18 in constant dark; type: in vivo; conditions: for light-induced phase advance: vehicle 76±23 min
# Method: Animals. Male adult (3-4 month-old) Syrian hamsters (Mesocricetus auratus) were raised and maintained in a 14:10 h light-dark cycle (L:D, lights on at 0600 h), with food and water ad libitum and room temperature set at 20±2° C. All animal procedures were performed in strict accordance with NIH rules for animal care and maintenance.
# For light pulse experiments, hamsters were placed in constant dark (DD) conditions, and exposed to a 15-min white light pulse of 50 lux at either circadian time (CT) 14 or 18 (with CT 12 defined as the onset of wheel running activity in DD). Phase shifts were calculated by fitting a line (by three observers masked to the experimental procedure) through activity onsets 5 days prior and between 5 and 15 days after light exposure and then comparing these two lines on the day of the light pulse. […]
smiles,measurement,setting,value
"CCCc1nn(C)c2c(=O)[nH]c(-c3cc(S(=O)(=O)N4CCN(C)CC4)ccc3OCC)nc12 [sildenafil, 5-[2-ethoxy-5-(4-methyl-1-piperazinylsulphonyl)phenyl]-1-methyl-3-n-propyl-1,6-dihydro-7H-pyrazolo[4,3-d]pyrimidin-7-one]",SCN cGMP levels,"[1]; 3.5 mg/kg i.p. at CT 18, 45 minutes after injection, saline 0.37±0.20, control 0.29±0.15, mean±SD",0.63±0.08 pmol cGMP/mg protein
same,SCN cGMP levels,"[1]; 90 min after injection, saline 0.26±0.16, no increase vs controls",0.37±0.20 pmol cGMP/mg protein
same,effect on light-induced phase delays,[2],did not affect
same,sildenafil-induced penile erections,[3],did not manifest the effects of sildenafil-induced penile erections
same,optimal erectogenic dose,rats,5 mg/kg/day
same,effect on reentrainment rates after a delay in the LD cycle,[4],did not affect
same,time to resynchronize to the new LD cycle,"[5]; 1 mg/kg i.p. at ZT 18, p>0.05 vs. control",9 ± 3 days
same,decrease in reentrainment time,[5]; 1 mg/kg,25%
same,time to resynchronize to the new LD cycle,"[5]; 3.5 mg/kg i.p. at ZT 18 on day of 6-h advance, mean±SD, six animals per group, p<0.05",8 ± 1 days
same,decrease in reentrainment time,[5]; 3.5 mg/kg,33%
same,time to resynchronize to the new LD cycle,"[5]; 10 mg/kg i.p. at ZT 18, p<0.001 vs. control",6 ± 2 days
same,decrease in reentrainment time,[5]; 10 mg/kg,50%
same,light-induced phase advance,"[6]; 3.5 mg/kg i.p. 45 min prior to light pulse at CT 18, mean±SD, p<0.05",150.4 ± 64.8 min
same,post-treatment circadian period,[6]; after light-induced phase advance,did not change
same,light-induced phase advance,"[6]; injection 90 min before light pulse at CT 18, not significantly different from controls",123 ± 27 min
same,"effect on activity rhythms, drug alone",[6]; without light pulse,did not modify activity rhythms
